According to US7390874B2 (Kuboyama Bio Ken, Inc., priority 2003, dated 2008):
Read-outs that look alike come from different tables or passages of the source. Ends that are not written are not given here.

How the values were obtained:
[1] = Body weight gains of rats in the adjuvant-induced arthritis study; assay type: in vivo, male Sprague-Dawley rats
Procedure: (§1) Rats weighting between 150-200 g were purchased from Animal Technologies Ltd., Kent, Wash. They were male Sprague-Dawley rats. The animals were kept individually in stainless steel cages with free access to water and feed (Harlan Teklan Rodent Diet). The light cycle was maintained at 12 hours light and 12 hours dark. The temperature was maintained at 22° C.±3° C. with a relative humidity of 40 to 70%.
The test materials were given orally (by gavage) to each of 5 rats per treatment group once per day for 10 days. Administration of the test materials was initiated on the day of sensitization.
(§2) The left hind paw was measured just before sensitization and again on Day 10. The plantar edema inhibitory rate and the body weight gain rate was determined by comparison with the non-sensitized rat groups.

[2] = mice
Procedure: One tenth (0.1 ml) of the above suspension is inoculated into the left hind leg muscle (hamstring muscle mass) of each mouse. The inoculated mice are placed into one large cage and then randomly segregated into groups of five mice. The mice are housed in shoe box cages on wood shavings with free access to water and laboratory chow. The mice are weighed on the day of inoculation, on day 7, day 12, at time of sacrifice.

[3] = test system: Adjuvant Induced Arthritis in Rats; experiment: Adjuvant-induced arthritis model in rats (paw weight, inhibition of inflammation); assay type: in vivo, male Sprague-Dawley rats
Procedure: Adjuvant-induced arthritis responds to both steroids and non-steroids. The degree of inflammation will be assessed by measuring differences in foot weight and/or the foot volume.
as §1
[…] The test compound and hydrocortisone were given by gavage.
Male Sprague-Dawley rats (150-200 g) were sensitized by injecting Fruend's complete adjuvant (0.5% suspension of killed mycobacterium tuberculosis (H37RA, Difco, in mineral oil)). A 0.1 ml aliquot was administered intradermally at a plantar site on the right hind leg of each rat.
The test materials were given orally (by gavage) to each of 5 rats per treatment group once per day for 10 days. […]
as §2
The paw weights for each group were averaged. Anti-inflammatory activity was determined by comparing paw weights calculated as follows: […]

Molecule | Body Weight Gains of Rats ([1]; 1 mcg/kg by gavage once per day for 10 days) | Body Weight Gains of Rats ([1]; 10 mcg/kg by gavage once per day for 10 days) | weight loss (in words) ([1]; rats, 10 mcg/kg and 1 mcg/kg by gavage for 10 days) | Average Weight Gain ([2]; 1 mcg/kg dose by gavage for 11 days) | Average Weight Gain ([2]; 10 mcg/kg dose by gavage for 11 days) | weight gain associated with administration versus control (in words) ([2]; gavage for 11 days) | Body Weight Gains of Rats ([1]; 10 mg/kg by gavage once per day for 10 days) | % Inhibition ([3]; 10 mg/kg by gavage once per day for 10 days, adjuvant-induced inflammation, rats) | Raw Paw Weight ([3]; rats sensitized with Freund's complete adjuvant, oral gavage once per day for 10 days, Day 10, dose for this column not stated)
YGSRS [Peptide, tyrosine-glycine-serine-arginine-serine] | 40.1 | 39.4 | without inducing weight loss | 1.85 g | 1.87 g | comparable to the control |  |  | 
C[C@]12CCC(=O)C=C1CC[C@@H]1[C@@H]2[C@@H](O)C[C@@]2(C)[C@H]1CC[C@]2(O)C(=O)CO [Hydrocortisone] |  |  |  |  |  |  | 22.2 | 95.6% | 0.69 g
